Test results published in ChEMBL document CHEMBL1201862, “PubChem BioAssay data set” (2004).
Active and inactive are the calls of the source.

Experiments:
Bcl-2-related protein A1 [1] = target: T1, Bcl-2-related protein A1 (Mus musculus, UniProt Q07440); assay: Bfl-1 binding inhibitors, SAR follow-up, biochemical, fluorescence polarization (AID 1070)
T1 sequence (Q07440 whole entry): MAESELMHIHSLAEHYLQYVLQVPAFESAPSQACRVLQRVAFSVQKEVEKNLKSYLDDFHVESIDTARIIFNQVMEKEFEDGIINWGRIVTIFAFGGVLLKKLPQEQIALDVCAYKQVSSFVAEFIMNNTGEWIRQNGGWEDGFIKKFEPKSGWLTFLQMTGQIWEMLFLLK

Bcl-2-related protein A1 [2] = target: T1, Bcl-2-related protein A1; assay: small-molecule antagonists of Bfl-1/BH3 interaction – biochemical, TR-FRET, mouse Bfl-1, confirmation (AID 621);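 note: TR-FRET binding of GST-Bfl-1 to FITC-labelled Bid peptide via terbium antibody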
[3] = target: Glyceraldehyde-3-phosphate dehydrogenase (Homo sapiens, UniProt P04406)
Glyceraldehyde-3-phosphate dehydrogenase, sequence (P04406 whole entry): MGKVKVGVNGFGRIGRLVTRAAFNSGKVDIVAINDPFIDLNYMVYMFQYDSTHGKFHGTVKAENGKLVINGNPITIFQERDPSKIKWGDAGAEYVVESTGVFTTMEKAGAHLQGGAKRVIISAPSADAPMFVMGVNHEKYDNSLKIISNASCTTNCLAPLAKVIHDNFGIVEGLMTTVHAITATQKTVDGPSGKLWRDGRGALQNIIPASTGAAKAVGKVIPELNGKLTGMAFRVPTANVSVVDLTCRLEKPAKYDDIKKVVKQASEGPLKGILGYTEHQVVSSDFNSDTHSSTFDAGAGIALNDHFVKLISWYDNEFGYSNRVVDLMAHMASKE

[4] = Luminescence Cell-Based Dose Confirmation to Identify Activators of 5'UTR Stem-Loop Driven Alpha-Synuclein mRNA Translation in H4 Neuroglioblastoma Cells. [Related pubchem assays: 1829 (Project Summary), 1814 (Primary HTS)]; type: functional
Estrogen receptor = target: T2, Estrogen receptor (Homo sapiens, UniProt P03372);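 note: potency for inhibiting coactivator peptide recruitment to the receptor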
T2 sequence (P03372 whole entry): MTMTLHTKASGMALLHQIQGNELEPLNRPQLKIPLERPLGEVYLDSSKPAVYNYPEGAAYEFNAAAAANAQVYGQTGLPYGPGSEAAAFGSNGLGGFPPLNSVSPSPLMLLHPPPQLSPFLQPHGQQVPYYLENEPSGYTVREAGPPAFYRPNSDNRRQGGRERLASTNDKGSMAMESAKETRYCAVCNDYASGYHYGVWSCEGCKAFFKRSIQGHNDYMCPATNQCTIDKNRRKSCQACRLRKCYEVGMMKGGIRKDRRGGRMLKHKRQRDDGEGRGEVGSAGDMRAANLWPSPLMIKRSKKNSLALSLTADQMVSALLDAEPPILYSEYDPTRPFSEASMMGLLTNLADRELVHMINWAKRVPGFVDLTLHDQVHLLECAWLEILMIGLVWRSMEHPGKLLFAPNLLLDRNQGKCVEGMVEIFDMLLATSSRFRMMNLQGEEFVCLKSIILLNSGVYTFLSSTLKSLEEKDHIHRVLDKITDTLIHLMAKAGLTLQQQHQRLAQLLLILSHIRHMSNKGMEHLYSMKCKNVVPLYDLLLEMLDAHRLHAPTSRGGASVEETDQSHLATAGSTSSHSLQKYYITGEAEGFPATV

Cytochrome P450 2C9 = Cytochrome P450 2C9 (Homo sapiens, UniProt P11712)
Cytochrome P450 2C19 = Cytochrome P450 2C19 (Homo sapiens, UniProt P33261); assay: Cytochrome panel assay with activity outcomes. Panel member name: p450-cyp2c19 Compounds with AC50 equal or less than 10 uM are considered active; type: functional; conditions: read-out: AC50
Cytochrome P450 2C19, sequence (P33261 whole entry): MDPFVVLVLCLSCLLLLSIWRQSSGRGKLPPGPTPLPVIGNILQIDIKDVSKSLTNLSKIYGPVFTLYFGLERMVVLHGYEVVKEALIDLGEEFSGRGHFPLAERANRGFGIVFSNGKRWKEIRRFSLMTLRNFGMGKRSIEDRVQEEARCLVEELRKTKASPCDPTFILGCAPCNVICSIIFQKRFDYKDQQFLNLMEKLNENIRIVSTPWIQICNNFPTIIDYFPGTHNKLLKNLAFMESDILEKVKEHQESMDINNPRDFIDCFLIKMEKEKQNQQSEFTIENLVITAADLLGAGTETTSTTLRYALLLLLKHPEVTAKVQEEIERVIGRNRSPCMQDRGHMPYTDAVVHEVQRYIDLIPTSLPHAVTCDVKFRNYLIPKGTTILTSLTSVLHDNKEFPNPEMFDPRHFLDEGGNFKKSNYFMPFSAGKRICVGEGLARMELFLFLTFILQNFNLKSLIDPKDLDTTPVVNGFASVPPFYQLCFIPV

Cytochrome P450 1A2 = target: T3, Cytochrome P450 1A2 (Homo sapiens, UniProt P05177);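 note: PubChem cytochrome P450 panel assay, CYP1A2 panel member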
T3 sequence (P05177 whole entry): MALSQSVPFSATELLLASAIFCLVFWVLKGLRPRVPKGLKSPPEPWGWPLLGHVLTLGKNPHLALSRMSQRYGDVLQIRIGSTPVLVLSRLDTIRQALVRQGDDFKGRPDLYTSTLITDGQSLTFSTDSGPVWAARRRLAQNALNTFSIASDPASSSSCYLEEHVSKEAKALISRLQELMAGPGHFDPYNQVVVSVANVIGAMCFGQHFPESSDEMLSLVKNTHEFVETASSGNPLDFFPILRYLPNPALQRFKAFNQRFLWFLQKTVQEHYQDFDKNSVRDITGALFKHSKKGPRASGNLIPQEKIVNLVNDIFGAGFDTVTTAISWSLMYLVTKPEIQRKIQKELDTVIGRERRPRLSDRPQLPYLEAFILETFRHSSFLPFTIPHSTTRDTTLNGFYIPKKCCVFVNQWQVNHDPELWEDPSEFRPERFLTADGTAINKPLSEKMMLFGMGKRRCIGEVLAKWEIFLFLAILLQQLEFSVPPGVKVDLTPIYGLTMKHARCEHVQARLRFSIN

[5] = Luminescence Cell-Based Dose Response to Identify Activators of 5'UTR Stem-Loop Driven Prion Protein mRNA Translation in H4-C Neuroglioblastoma Cells. [Related pubchem assays: 1829 (Project Summary), 1814 (Primary HTS)]; type: functional
[6] = Luminescence Cell-Based Dose Retest to Confirm Inhibitors of Cancer Stem Cells. [Related pubchem assays (depositor defined):AID2717, AID2721]; type: functional; conditions: Homo sapiens
[7] = Luminescence Cell-Based Dose Response to Identify Activators of Luciferase Translation or Activity in H4-C Neuroglioblastoma Cells. [Related pubchem assays: 1829 (Project Summary), 1814 (Primary HTS)]; type: functional
H4 = assay: Luminescence Cell-Based Dose Response HTS to Identify Activators of 5'UTR Stem-Loop Driven Prion Protein mRNA Translation in H4 Neuroglioblastoma Cells. [Related pubchem assays: 1829 (Project Summary), 1814 (Primary HTS)]; type: functional; conditions: Homo sapiens
[8] = Luminescence Cell-Based Dose Response HTS to Identify Activators of Luciferase Translation or Activity in H4 […] Cells. [Related pubchem assays: 1829 (Project Summary), 1814 (Primary HTS)]; type: functional
[9] = target: T4, Apoptotic protease-activating factor 1 (Homo sapiens, UniProt O14727); type: functional
T4 sequence (O14727 whole entry): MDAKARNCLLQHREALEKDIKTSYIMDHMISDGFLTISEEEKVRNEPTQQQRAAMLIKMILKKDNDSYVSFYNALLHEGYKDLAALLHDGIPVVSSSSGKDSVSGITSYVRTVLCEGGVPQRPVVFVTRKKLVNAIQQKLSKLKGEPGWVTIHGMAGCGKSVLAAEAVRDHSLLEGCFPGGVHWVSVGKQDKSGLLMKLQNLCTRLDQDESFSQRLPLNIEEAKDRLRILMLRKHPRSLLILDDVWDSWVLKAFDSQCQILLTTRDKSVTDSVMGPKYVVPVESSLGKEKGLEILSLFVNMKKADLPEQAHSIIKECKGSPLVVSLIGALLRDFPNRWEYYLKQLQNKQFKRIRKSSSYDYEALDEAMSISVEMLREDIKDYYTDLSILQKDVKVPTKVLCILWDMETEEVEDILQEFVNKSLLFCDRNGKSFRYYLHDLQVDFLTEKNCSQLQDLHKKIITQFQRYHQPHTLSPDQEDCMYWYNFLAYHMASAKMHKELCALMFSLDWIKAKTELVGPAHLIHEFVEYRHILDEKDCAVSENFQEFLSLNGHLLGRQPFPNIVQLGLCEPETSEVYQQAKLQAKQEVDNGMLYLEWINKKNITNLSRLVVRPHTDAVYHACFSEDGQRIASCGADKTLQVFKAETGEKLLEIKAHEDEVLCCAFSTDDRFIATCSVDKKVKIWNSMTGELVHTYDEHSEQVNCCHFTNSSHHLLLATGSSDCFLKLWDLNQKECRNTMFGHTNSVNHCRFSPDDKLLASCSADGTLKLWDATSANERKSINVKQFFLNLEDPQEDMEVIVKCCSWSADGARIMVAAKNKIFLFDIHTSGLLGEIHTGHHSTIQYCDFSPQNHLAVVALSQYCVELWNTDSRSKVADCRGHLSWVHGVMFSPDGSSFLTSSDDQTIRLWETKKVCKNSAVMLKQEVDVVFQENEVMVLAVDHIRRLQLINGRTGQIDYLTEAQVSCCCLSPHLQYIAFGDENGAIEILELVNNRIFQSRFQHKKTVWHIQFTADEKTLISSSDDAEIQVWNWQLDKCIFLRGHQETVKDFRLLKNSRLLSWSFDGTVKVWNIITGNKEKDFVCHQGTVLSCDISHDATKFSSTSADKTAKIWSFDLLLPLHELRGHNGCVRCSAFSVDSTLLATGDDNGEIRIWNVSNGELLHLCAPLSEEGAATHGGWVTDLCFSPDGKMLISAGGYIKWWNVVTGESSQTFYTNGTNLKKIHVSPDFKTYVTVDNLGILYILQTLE

Genome polyprotein = Genome polyprotein (dengue virus type 2, UniProt P29990); assay: flavivirus cap methylation enzyme inhibition – biochemical, confirmation dose response, primary screen (AID 588689); type: functional
Genome polyprotein, sequence (P29990 2492-3391 limits assumed): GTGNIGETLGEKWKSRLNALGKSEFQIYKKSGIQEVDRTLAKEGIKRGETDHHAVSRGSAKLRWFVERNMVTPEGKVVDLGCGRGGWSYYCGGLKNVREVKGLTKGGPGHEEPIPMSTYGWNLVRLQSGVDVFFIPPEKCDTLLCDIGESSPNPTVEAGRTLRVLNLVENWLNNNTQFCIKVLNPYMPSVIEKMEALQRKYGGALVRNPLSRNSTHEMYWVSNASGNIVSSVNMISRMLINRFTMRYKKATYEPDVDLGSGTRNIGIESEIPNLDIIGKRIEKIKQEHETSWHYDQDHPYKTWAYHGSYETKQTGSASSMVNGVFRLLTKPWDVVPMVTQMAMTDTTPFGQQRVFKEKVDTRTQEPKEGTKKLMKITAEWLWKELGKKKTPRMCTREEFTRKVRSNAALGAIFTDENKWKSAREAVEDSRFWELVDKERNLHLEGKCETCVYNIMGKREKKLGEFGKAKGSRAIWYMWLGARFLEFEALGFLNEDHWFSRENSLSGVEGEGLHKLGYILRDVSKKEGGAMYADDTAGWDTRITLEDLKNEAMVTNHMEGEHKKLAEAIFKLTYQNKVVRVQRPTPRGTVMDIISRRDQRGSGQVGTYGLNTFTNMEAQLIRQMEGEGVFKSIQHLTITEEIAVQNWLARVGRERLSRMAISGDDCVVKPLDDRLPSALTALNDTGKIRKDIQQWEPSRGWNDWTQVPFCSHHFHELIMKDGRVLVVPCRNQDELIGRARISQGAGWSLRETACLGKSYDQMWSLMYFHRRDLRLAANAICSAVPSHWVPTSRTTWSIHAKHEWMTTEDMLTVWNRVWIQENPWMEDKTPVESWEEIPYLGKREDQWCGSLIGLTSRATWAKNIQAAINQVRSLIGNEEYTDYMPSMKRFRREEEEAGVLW

[10] = target: Serine/threonine-protein phosphatase (Homo sapiens, UniProt Q9BPW0); assay: inhibition of protein phosphatase 5 activity – biochemical, fluorescence, dose response (AID 2395)
Serine/threonine-protein phosphatase, sequence (Q9BPW0 whole entry): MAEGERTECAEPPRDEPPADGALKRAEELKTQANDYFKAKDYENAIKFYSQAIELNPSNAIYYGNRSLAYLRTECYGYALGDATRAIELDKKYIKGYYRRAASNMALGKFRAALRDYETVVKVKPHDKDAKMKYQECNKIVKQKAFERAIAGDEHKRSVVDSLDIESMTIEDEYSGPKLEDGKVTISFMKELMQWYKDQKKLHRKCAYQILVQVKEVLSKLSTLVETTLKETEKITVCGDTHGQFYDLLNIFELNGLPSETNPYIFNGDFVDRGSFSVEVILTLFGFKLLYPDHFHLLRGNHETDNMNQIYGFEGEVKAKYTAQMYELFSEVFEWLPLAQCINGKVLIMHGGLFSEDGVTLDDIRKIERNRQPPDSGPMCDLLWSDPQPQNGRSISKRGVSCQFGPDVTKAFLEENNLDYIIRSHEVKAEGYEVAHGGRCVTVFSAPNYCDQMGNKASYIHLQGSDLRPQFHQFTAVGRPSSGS

[11] = target: Glucose-6-phosphate 1-dehydrogenase (Homo sapiens, UniProt P11413); assay: inhibition of Homo sapiens G6PD, dose series – biochemical, fluorescence, selectivity assay for P. falciparum G6PD inhibitor project, dose response (AID 504792); type: functional
Glucose-6-phosphate 1-dehydrogenase, sequence (P11413 whole entry): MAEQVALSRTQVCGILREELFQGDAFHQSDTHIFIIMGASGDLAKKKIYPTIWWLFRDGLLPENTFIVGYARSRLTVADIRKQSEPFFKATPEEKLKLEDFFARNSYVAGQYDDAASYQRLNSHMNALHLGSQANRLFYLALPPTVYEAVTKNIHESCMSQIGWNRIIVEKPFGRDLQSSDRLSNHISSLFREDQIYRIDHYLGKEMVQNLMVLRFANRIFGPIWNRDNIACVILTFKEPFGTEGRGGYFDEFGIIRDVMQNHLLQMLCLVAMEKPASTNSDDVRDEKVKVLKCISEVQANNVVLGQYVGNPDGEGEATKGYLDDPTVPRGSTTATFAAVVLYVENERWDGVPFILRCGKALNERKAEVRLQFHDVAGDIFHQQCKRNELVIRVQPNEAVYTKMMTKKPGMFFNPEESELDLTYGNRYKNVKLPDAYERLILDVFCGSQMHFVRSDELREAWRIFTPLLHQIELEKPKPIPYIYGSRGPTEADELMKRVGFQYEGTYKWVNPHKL

[12] = target: Serine/threonine-protein phosphatase PP1-alpha catalytic subunit (Homo sapiens, UniProt P62136); assay: inhibition of protein phosphatase 1 activity – biochemical, fluorescence, dose response (AID 2394)
Serine/threonine-protein phosphatase PP1-alpha catalytic subunit, sequence (P62136 whole entry): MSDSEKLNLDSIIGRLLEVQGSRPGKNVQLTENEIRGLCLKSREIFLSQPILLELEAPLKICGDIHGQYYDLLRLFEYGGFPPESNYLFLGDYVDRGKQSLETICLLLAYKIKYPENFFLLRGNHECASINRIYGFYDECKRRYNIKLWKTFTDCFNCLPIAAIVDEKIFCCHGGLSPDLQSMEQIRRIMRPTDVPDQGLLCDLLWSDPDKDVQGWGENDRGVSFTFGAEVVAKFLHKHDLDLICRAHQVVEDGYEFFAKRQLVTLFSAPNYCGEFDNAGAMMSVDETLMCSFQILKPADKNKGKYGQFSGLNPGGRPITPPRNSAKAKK

Vero = assay: mammalian cell viability reduction – secondary assay, cytotoxicity control for West Nile virus antiviral project, dose response (AID 1650); type: functional; conditions: Chlorocebus sabaeus
[13] = viability loss in Vero cells – cytotoxicity control for Vif-APOBEC3G degradation inhibitor project, dose response (AID 1117358); type: functional; conditions: Vero
Cytochrome P450 2D6 = Cytochrome P450 2D6 (Homo sapiens, UniProt P10635);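 note: CYP2D6 member of a cytochrome P450 panel assay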
Cytochrome P450 2D6, sequence (P10635 whole entry): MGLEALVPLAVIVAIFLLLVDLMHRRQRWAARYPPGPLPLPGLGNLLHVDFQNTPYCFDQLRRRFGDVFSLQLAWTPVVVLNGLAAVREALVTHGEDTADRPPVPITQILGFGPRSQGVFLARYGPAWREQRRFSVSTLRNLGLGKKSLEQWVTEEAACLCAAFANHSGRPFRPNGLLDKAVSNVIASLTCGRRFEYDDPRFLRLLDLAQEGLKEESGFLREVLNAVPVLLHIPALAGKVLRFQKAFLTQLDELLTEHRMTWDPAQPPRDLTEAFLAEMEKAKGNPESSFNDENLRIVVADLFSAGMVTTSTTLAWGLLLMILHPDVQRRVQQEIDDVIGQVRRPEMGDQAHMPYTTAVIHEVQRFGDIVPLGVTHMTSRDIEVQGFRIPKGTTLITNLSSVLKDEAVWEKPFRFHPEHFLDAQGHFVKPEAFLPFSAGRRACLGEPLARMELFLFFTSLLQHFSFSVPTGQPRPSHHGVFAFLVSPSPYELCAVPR

[14] = target: T5, Replicative DNA helicase DnaB (Mycobacterium tuberculosis, UniProt P9WMR3); assay: DnaB intein splicing inhibitors, dose response, biochemical, cell-free fluorescence (AID 449749); type: functional
T5 sequence (P9WMR3 whole entry): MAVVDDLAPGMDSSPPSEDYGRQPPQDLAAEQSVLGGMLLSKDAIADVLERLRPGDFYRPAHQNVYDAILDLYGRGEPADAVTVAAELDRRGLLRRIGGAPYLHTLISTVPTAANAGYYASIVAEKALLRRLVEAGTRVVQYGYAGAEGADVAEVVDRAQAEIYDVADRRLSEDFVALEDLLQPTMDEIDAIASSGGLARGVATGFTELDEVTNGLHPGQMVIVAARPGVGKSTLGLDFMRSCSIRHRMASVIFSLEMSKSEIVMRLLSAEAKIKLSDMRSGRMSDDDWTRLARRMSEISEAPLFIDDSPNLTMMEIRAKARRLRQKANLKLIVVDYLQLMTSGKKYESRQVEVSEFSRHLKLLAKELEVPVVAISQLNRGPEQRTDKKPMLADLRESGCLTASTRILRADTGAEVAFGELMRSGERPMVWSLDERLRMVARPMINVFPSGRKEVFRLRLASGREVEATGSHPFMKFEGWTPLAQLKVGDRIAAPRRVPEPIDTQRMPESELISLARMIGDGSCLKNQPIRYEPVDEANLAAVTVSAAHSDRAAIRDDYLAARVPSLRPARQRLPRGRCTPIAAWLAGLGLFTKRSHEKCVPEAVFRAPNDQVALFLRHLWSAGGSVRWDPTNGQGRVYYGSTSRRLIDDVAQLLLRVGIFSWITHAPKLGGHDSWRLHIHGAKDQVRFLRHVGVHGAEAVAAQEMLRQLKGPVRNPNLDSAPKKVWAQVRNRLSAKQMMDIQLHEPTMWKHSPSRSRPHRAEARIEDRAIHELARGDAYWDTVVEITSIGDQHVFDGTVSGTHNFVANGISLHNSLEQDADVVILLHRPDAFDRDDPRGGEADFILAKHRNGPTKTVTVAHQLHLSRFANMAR

Protein RecA = target: T6, Protein RecA (Mycobacterium tuberculosis, UniProt P9WHJ3); assay: Fluorescence Cell-Free Homogeneous Dose Retest to Identify Inhibitors of RecA-Intein Splicing Activity. [Related pubchem assays (depositor defined):AID2097, AID2223, AID489010, AID492950]; type: functional
T6 sequence (P9WHJ3 whole entry): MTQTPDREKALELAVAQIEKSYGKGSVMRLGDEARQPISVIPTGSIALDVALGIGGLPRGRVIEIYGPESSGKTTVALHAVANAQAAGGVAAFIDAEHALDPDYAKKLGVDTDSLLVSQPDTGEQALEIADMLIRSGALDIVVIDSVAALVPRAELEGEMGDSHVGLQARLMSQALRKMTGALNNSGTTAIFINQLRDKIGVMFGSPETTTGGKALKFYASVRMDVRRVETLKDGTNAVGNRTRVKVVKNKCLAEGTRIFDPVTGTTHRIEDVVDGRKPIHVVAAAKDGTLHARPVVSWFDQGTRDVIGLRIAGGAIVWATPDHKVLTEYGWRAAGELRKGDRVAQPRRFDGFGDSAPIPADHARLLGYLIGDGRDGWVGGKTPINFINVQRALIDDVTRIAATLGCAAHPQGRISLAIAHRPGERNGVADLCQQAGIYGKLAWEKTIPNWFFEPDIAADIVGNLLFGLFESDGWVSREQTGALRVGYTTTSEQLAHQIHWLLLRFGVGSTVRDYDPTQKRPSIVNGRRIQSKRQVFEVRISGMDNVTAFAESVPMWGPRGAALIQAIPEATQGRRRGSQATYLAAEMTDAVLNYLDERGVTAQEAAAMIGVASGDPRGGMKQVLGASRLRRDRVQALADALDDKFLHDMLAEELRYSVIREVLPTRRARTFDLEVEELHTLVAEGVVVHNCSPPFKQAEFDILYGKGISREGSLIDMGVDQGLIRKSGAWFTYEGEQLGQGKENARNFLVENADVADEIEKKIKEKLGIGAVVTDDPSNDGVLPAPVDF

[15] = target: Voltage-gated inwardly rectifying potassium channel KCNH2 (Homo sapiens, UniProt Q12809); assay: concentration-dependent hERG rescue from blockers – cell-based, thallium flux, dose response (AID 2121); type: ADME
Voltage-gated inwardly rectifying potassium channel KCNH2, sequence (Q12809 whole entry): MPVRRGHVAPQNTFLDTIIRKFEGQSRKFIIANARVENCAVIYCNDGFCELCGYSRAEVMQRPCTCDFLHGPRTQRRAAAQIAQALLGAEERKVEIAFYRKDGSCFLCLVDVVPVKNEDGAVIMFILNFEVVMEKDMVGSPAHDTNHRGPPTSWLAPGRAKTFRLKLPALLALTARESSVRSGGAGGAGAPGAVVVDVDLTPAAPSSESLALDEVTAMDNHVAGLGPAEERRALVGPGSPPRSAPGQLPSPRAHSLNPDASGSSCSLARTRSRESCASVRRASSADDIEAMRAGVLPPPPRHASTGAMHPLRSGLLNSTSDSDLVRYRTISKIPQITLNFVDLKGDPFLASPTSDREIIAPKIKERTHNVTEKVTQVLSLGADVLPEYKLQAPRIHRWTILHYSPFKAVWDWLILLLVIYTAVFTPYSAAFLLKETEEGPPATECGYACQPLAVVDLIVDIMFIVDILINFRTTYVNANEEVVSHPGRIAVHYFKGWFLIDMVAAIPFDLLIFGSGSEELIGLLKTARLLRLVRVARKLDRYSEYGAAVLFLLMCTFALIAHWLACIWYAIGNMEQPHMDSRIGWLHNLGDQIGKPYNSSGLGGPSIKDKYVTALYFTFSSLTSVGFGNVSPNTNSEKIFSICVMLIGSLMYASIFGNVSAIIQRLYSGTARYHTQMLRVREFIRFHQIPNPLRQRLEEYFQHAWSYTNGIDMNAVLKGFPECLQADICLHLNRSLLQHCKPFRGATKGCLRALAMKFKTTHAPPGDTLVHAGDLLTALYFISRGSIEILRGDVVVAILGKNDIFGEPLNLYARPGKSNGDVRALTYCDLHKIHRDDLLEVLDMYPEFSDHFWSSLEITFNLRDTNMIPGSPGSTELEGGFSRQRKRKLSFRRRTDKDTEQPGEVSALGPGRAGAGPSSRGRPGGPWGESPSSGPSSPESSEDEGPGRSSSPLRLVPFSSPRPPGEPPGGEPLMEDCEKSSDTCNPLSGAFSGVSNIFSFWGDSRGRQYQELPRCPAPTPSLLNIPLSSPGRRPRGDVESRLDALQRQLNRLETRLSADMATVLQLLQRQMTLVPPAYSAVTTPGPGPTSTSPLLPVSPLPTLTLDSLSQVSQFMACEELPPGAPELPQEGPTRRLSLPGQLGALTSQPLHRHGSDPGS

O=C1C(Cl)=C(N2CCOCC2)C(=O)N1c1cccc(Cl)c1Cl
IC50 (Bcl-2-related protein A1 [1]): 4.05 µM (active) | IC50 (Bcl-2-related protein A1 [2]): 1.52 µM (active) | IC50 [3]: > 10 µM (inconclusive)

CCCc1cc2c(=O)c(-c3ccc4c(c3)OCCO4)coc2cc1OC(=O)c1ccco1
EC50 [4]: 0.388 µM (active) | IC50 (Estrogen receptor): > 50 µM (not active) | AC50 (Cytochrome P450 2C9): inconclusive | AC50 (Cytochrome P450 2C19): 2.51 µM (inconclusive) | AC50 (Cytochrome P450 1A2): 2 µM (inconclusive) | EC50 [5]: 0.306 µM (active) | AC50 [6]: 3.85 µM (active) | EC50 [7]: 0.376 µM (active) | EC50 (H4): > 120 µM (not active) | EC50 [8]: < 0.1 µM (active)

COC(=O)CCC(=O)OC1(C)C(=O)C2=CN(C3CC3)C(c3ccc(OC)cc3)=CC2=C(Br)C1=O (centres undefined)
IC50 [9]: 22 µM (active) | IC50 (Genome polyprotein): > 100 µM (active) | IC50 [10]: 8.96 µM (active) | IC50 [11]: 31.1 µM (inactive) | IC50 [12]: 46.2 µM (not active)

Cc1cc(C)n(Cc2ccc(NC(=O)c3nn(C)cc3[N+](=O)[O-])cc2)n1
CC50 (Vero): 9.3 µM (active) | CC50 [13]: 20.8 µM (active)

CN1C(=O)/C(=N\OC(=O)c2cccc3ccccc23)c2ccccc21
AC50 (Cytochrome P450 2D6): 12.6 µM (inconclusive) | AC50 [14]: 7.38 µM (active) | EC50 (Protein RecA): 15 µM (active) | EC50 [15]: 1.17 µM (active)
